# Data published in US20110263557A1, “COMPOUNDS AND COMPOSITIONS AS MODULATORS OF GPR119 ACTIVITY” (IRM LLC, priority 2008, published 2011).
# Molecular target: T1, human GPR119 (Homo sapiens, UniProt Q8TDV5)
# T1 construct: expressed in transfected cells
# T1 sequence (Q8TDV5 1-335): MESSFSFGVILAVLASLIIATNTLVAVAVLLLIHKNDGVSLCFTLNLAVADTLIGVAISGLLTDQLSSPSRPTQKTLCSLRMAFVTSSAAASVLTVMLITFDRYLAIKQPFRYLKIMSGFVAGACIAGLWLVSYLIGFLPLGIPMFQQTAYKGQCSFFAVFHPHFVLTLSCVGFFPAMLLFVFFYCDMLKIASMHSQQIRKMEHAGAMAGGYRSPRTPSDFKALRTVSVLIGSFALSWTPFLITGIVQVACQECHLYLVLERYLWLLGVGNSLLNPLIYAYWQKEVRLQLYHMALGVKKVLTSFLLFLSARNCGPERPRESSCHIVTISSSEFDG
# Experiment: Cyclic AMP assay in stable cell line (Flp-In-CHO-hGPR119, HTRF)
# Assay type: cell-based
# Settings: Flp-In-CHO-hGPR119 cells, intracellular cAMP by HTRF, 1 mM IBMX, 37° C. for 30 minutes; read-out: CHO-GPR119-HTRF (3158)
# Protocol: Flp-In-CHO cells (Invitrogen, Cat.#R758-07) are maintained in Ham's F12 medium supplemented with 10% fetal bovine serum, 1% antibiotic mixture and 2 mM L-glutamine. The cells are transfected with a DNA mixture containing human GPR119 in pcDNA5/FRT vector and the pOG44 vector (1:9) using Fugene6 (Roche), according to the manufacturer's instruction. After 48 hours, the medium is changed to medium supplemented with 400 μg/ml hygromycin B to initiate the selection of stably transfected cells.
# To test the activity of compounds of the invention, Flp-In-CHO-hGPR119 cells are harvested and resuspended in DMEM plus 3% lipid-depleted fetal bovine serum. Forth μl of cells are plated in 384 well plates at a density of 15,000 cells/well. IBMX (3-isobutyl-1-methyl-xanthine) is added to the cells to a final concentration of 1 mM, followed by the addition of 500 nl of the compound to be tested. The cells are incubated at 37° C. for 30 minutes. Equal volume (20 μl) of the HTRF reagents, anti-cAMP-Cryptate and cAMP-XL665, are added to the cells. The plates are incubated at room temperature for 1 hour and read on a HTRF reader according to the manufacturer's instruction.
# Compounds of Formula I, in free form or in pharmaceutically acceptable salt form, produced a concentration-dependent increase in intracellular cAMP level. […] For example, the following tables show some EC50 data for a representative sample of compounds of the invention: […]
row,Structure (SMILES),EC50
1,"CS(=O)(=O)N1CCN(Cc2ccc(OC3CCN(c4ccc(C(F)(F)F)cn4)CC3)cc2)CC1 [Example B6, 1-(methylsulfonyl)-4-(4-(1-(5-(trifluoromethyl)pyridin-2-yl)piperidin-4-yloxy)benzyl)piperazine]",220 nM
2,"CCc1cnc(N2CCC(Oc3ccc(CN4CCN(S(C)(=O)=O)CC4)cc3NCCOC)CC2)nc1 [Example C9, 2-(1-(5-Ethylpyrimidin-2-yl)piperidin-4-yloxy)-N-(2-methoxyethyl)-5-((4-(methylsulfonyl)piperazin-1-yl)methyl)aniline]",136 nM
3,"CCc1cnc(N2CCC(Oc3ccc(CN4CCN(S(C)(=O)=O)CC4)cc3C(=O)OC)CC2)nc1 [Example A14, methyl 2-(1-(5-ethylpyrimidin-2-yl)piperidin-4-yloxy)-5-((4-(methylsulfonyl)piperazin-1-yl)methyl)benzoate]",313 nM
4,"CCc1cnc(N2CCC(Oc3ccc(CN4CCN(S(C)(=O)=O)CC4)cc3F)CC2)nc1 [Example A6, 5-ethyl-2-(4-(2-fluoro-4-((4-(methylsulfonyl)piperazin-1-yl)methyl)phenoxy)piperidin-1-yl)pyrimidine]",20 nM
5,"Cn1nnc(-c2cnc(N3CCC(Oc4ccc(CN5CCN(S(C)(=O)=O)CC5)cc4Cl)CC3)nc2)n1 [Example B17, 2-(4-(2-Chloro-4-((4-(methylsulfonyl)piperazin-1-yl)methyl)phenoxy)piperidin-1-yl)-5-(2-methyl-2H-tetrazol-5-yl)pyrimidine]",9 nM
6,"CCc1cnc(N2CCC(Oc3ccc(CN4CCN(S(C)(=O)=O)CC4)c(C)c3)CC2)nc1 [Example A2, 5-ethyl-2-(4-(3-methyl-4-((4-(methylsulfonyl)piperazin-1-yl)methyl)phenoxy)piperidin-1-yl)pyrimidine]",203 nM
7,CCc1cnc(N2CCC(Oc3ccc(CN4CCN(S(C)(=O)=O)CC4)cc3)CC2)nc1 [Example A1],56 nM
8,"CC(C)c1noc(N2CCC(Oc3ccc(CN4CCN(S(C)(=O)=O)CC4)cc3Cl)CC2)n1 [Example B11, 5-(4-(2-chloro-4-((4-(methylsulfonyl)piperazin-1-yl)methyl)phenoxy)piperidin-1-yl)-3-isopropyl-1,2,4-oxadiazole]",13 nM
9,"CCc1cnc(N2CCC(Oc3ccc(CN4CCN(S(C)(=O)=O)CC4)cc3Br)CC2)nc1 [Example A8, 2-(4-(2-bromo-4-((4-(methylsulfonyl)piperazin-1-yl)methyl)phenoxy)piperidin-1-yl)-5-ethylpyrimidine]",5 nM
10,"CCc1cnc(N2CCC(Oc3ccc(CN4CCN(S(C)(=O)=O)CC4)nc3)CC2)nc1 [Example A13, 5-ethyl-2-(4-(6-((4-(methylsulfonyl)piperazin-1-yl)methyl)pyridin-3-yloxy)piperidin-1-yl)pyrimidine]",867 nM
11,"CN(C)C(=O)c1cnc(N2CCC(Oc3ccc(CN4CCN(S(C)(=O)=O)CC4)cc3Cl)CC2)nc1 [Example B13, 2-(4-(2-chloro-4-((4-(methylsulfonyl)piperazin-1-yl)methyl)phenoxy)piperidin-1-yl)-N,N-dimethylpyrimidine-5-carboxamide]",465 nM
12,"CC1(OC(=O)N2CCC(Oc3ccc(CN4CCN(S(C)(=O)=O)CC4)cc3)CC2)CC1 [Example B2, 1-Methylcyclopropyl 4-(4-((4-(methylsulfonyl)piperazin-1-yl)methyl)phenoxy)piperidine-1-carboxylate]",127 nM
13,"CC1(OC(=O)N2CCC(Oc3ccc(CN4CCN(S(C)(=O)=O)CC4)cc3Cl)CC2)CC1 [Example B3, 1-Methylcyclopropyl 4-(2-chloro-4-((4-(methylsulfonyl)piperazin-1-yl)methyl)phenoxy)piperidine-1-carboxylate]",22 nM
14,"CCc1cnc(N2CCC(Oc3ccc(CN4CCN(S(C)(=O)=O)CC4)cc3-c3ccn[nH]3)CC2)nc1 [Example C5, 5-ethyl-2-(4-(4-((4-(methylsulfonyl)piperazin-1-yl)methyl)-2-(1H-pyrazol-5-yl)phenoxy)piperidin-1-yl)pyrimidine]",44 nM
15,CCc1cnc(N2CCC(Oc3ccc(CN4CCN(S(C)(=O)=O)CC4)cc3CCCOC)CC2)nc1 [Example C2],187 nM

# Now from value to compound:
row,EC50,Structure (SMILES)
1,2680 nM,"CCc1cnc(N2CCC(Oc3ccc(CN4CCC(c5nnn(C)n5)CC4)cc3Cl)CC2)nc1 [Example E12, 2-(4-(2-chloro-4-((4-(2-methyl-2H-tetrazol-5-yl)piperidin-1-yl)methyl)phenoxy)piperidin-1-yl)-5-ethylpyrimidine]"
2,114 nM,"CCc1cnc(N2CCC(Oc3ccc(CN4CC(N(C)S(C)(=O)=O)C4)cc3Cl)CC2)nc1 [Example E15, N-(1-(3-Chloro-4-(1-(5-ethylpyrimidin-2-yl)piperidin-4-yloxy)benzyl)azetidin-3-yl)-N-methylmethanesulfonamide]"
3,3 nM,"CCc1cnc(N2CCC(Oc3ccc(CC4CCN(S(C)(=O)=O)CC4)cc3Cl)CC2)nc1 [Example E2, 2-(4-(2-Chloro-4-((1-(methylsulfonyl)piperidin-4-yl)methyl)phenoxy)piperidin-1-yl)-5-ethylpyrimidine]"
4,8 nM,"CCc1cnc(N2CCC(Oc3ccc(CN4CCN(S(=O)(=O)CCCO)CC4)cc3Cl)CC2)nc1 [Example D1, 3-(4-(3-Chloro-4-(1-(5-ethylpyrimidin-2-yl)piperidin-4-yloxy)benzyl)piperazin-1-ylsulfonyl)propan-1-ol]"
5,812 nM,"CCc1cnc(N2CCC(Oc3ccc(CN4CCN(S(C)(=O)=O)CC4=O)cc3Cl)CC2)nc1 [Example E4, 1-(3-Chloro-4-(1-(5-ethylpyrimidin-2-yl)piperidin-4-yloxy)benzyl)-4-(methylsulfonyl)piperazin-2-one]"
